Results on 20 compounds are retold here after patent US20240050428A1 (Cullgen (Shanghai), Inc., priority 2020, published 2024).

Like-named read-outs stand apart in the source and are kept apart here. Some results are limits rather than exact numbers.

The subject of one assay is MOLM-13 cells. As to the kind of experiment: Cell viability assay (CellTiter-Glo) in MOLM-13 cells, alone or with gilteritinib. In kind it is cell-based. To be noted: Homo sapiens, MOLM-13 cells, three days, CellTiter-Glo. For orientation: Cellular ATP, detected with luciferase, serves as a proxy for viable cell number.
The test system of a further assay is MV4;11 cells. As to the kind of experiment: Cell viability assay (CellTiter-Glo) in MV4;11 cells, alone or with gilteritinib. In kind it is cell-based. To be noted: Homo sapiens, MV4;11 cells, three days, CellTiter-Glo, read-out: MV4.
Setting [1] is: MOLM-13, 72 h, compound alone (without gilteritinib), read-out: MOLM-13 IC50.
[2] abbreviates: MOLM-13, 72 h, compound with gilteritinib 20 nM, read-out: MOLM-13 IC50 gilteritinib.
[3] abbreviates: MV4-11, 72 h, compound alone (without gilteritinib), 11 IC50.
The mark [4] stands for this setting: MV4-11, 72 h, compound with gilteritinib 10 nM, 11 IC50 gilteritinib.
[5] abbreviates: 72 h, compound alone (without gilteritinib), read-out: MOLM-13 IC50.
Setting [6] is: 72 h, compound with gilteritinib 20 nM, read-out: MOLM-13 IC50 gilteritinib.
[7] abbreviates: 72 h, compound alone (without gilteritinib), 11 IC50.
The mark [8] stands for this setting: 72 h, compound with gilteritinib 10 nM, 11 IC50 gilteritinib.

As to `Cc1c(-c2cnc3ccccc3n2)cnn1CCCCCCNc1ccc2c(c1)C(=O)N(C1CCC(=O)NC1=O)C2=O` (centres unmarked) [GS-535, 2-(2,6-dioxopiperidin-3-yl)-5-((6-(5-methyl-4-(quinoxalin-2-yl)-1H-pyrazol-1-yl)hexyl)amino)isoindoline-1,3-dione], the IC50 with MOLM-13 cells (setting [1]) was greater than 1000 nM; with MOLM-13 cells (setting [2]), less than 10 nM; in the assay on MV4;11 cells (setting [3]), 10 to 100 nM; in the assay on MV4;11 cells (setting [4]), 10 to 100 nM.
As for `O=C1CCC(N2C(=O)c3ccc(NCCCCCCn4ccc(-c5cnc6ccccc6n5)n4)cc3C2=O)C(=O)N1` (centres unmarked) [GS-536, 2-(2,6-Dioxopiperidin-3-yl)-5-((6-(3-(quinoxalin-2-yl)-1H-pyrazol-1-yl)hexyl)amino)isoindoline-1,3-dione], the IC50 in the assay with MOLM-13 cells (setting [1]) was greater than 1000 nM; in the assay on MOLM-13 cells (setting [2]), 10 to 100 nM; in the assay with MV4;11 cells (setting [3]), greater than 1000 nM; in the assay on MV4;11 cells (setting [4]), 100 to 1000 nM.
Take `O=C1CCC(N2C(=O)c3ccc(NCCCCCCn4nccc4-c4cnc5ccccc5n4)cc3C2=O)C(=O)N1` (centres unmarked) [GS-537, 2-(2,6-dioxopiperidin-3-yl)-5-((6-(5-(quinoxalin-2-yl)-1H-pyrazol-1-yl)hexyl)amino)isoindoline-1,3-dione]: the IC50 with MOLM-13 cells (setting [1]) was greater than 1000 nM; with MOLM-13 cells (setting [2]), 10 to 100 nM; in the assay on MV4;11 cells (setting [3]), 100 to 1000 nM; in the assay on MV4;11 cells (setting [4]) it was 100 to 1000 nM.
On to `O=C1CCC(N2C(=O)c3ccc(NCC4CC(n5cc(-c6cnc7ccccc7n6)cn5)C4)cc3C2=O)C(=O)N1` (centres unmarked) [GS-538, 2-(2,6-Dioxopiperidin-3-yl)-5-(((3-(4-(quinoxalin-2-yl)-1H-pyrazol-1-yl)cyclobutyl)methyl)amino)isoindoline-1,3-dione], for which the IC50 in the assay on MOLM-13 cells (setting [1]) fell in the range of 100 to 1000 nM; in the assay on MOLM-13 cells (setting [2]), 10 to 100 nM; in the assay on MV4;11 cells (setting [3]), 100 to 1000 nM; in the assay on MV4;11 cells (setting [4]) it was 10 to 100 nM.
For `O=C1CCC(N2C(=O)c3ccc(NCC4CC5(C4)CC(n4cc(-c6cnc7ccccc7n6)cn4)C5)cc3C2=O)C(=O)N1` (centres unmarked) [GS-539, 2-(2,6-Dioxopiperidin-3-yl)-5-(((6-(4-(quinoxalin-2-yl)-1H-pyrazol-1-yl)spiro[3.3]heptan-2-yl)methyl)amino)isoindoline-1,3-dione], the IC50 was greater than 1000 nM in the assay with MOLM-13 cells (setting [1]), 100 to 1000 nM in the assay on MOLM-13 cells (setting [2]), greater than 1000 nM in the assay on MV4;11 cells (setting [3]) and 100 to 1000 nM with MV4;11 cells (setting [4]).
With `Cc1nn(CCCCCCNc2ccc3c(c2)C(=O)N(C2CCC(=O)NC2=O)C3=O)c(C)c1-c1nc2ccccc2nc1C(F)(F)F` (centres unmarked) [GS-540, 5-((6-(3,5-Dimethyl-4-(3-(trifluoromethyl)quinoxalin-2-yl)-1H-pyrazol-1-yl)hexyl)amino)-2-(2,6-dioxopiperidin-3-yl)isoindoline-1,3-dione], the IC50 in the assay on MOLM-13 cells (setting [1]) was greater than 1000 nM; in the assay with MOLM-13 cells (setting [2]), 10 to 100 nM; in the assay with MV4;11 cells (setting [3]) it was greater than 1000 nM; with MV4;11 cells (setting [4]), 10 to 100 nM.
On to `O=C1CCC(N2C(=O)c3ccc(NCCCCCCn4cc(-c5cnc6ccc(C7CCNCC7)cc6n5)cn4)cc3C2=O)C(=O)N1` (centres unmarked) [GS-541, 2-(2,6-Dioxopiperidin-3-yl)-5-((6-(4-(7-(piperidin-4-yl)quinoxalin-2-yl)-1H-pyrazol-1-yl)hexyl)amino)isoindoline-1,3-dione], for which the IC50 with MOLM-13 cells (setting [1]) is 10 to 100 nM; with MOLM-13 cells (setting [2]), less than 10 nM; in the assay on MV4;11 cells (setting [3]), 100 to 1000 nM; in the assay with MV4;11 cells (setting [4]), less than 10 nM.
Turning to `O=C1CCC(N2C(=O)c3ccc(NCCCCCCn4cc(-c5cnc6ccc(C7CCOCC7)cc6n5)cn4)cc3C2=O)C(=O)N1` (centres unmarked) [GS-542, 2-(2,6-Dioxopiperidin-3-yl)-5-((6-(4-(7-(tetrahydro-2H-pyran-4-yl)quinoxalin-2-yl)-1H-pyrazol-1-yl)hexyl)amino)isoindoline-1,3-dione], the IC50 with MOLM-13 cells (setting [1]) is 10 to 100 nM; with MOLM-13 cells (setting [2]), less than 10 nM; in the assay on MV4;11 cells (setting [3]), 10 to 100 nM; in the assay with MV4;11 cells (setting [4]), less than 10 nM.
For the compound `O=C1CCC(N2C(=O)c3ccc(NCCCCC(=O)N4CCC(n5cc(-c6cnc7ccc(N8CCNCC8)cc7n6)cn5)CC4)cc3C2=O)C(=O)N1` (centres unmarked) [GS-543, 2-(2,6-Dioxopiperidin-3-yl)-5-((5-oxo-5-(4-(4-(7-(piperazin-1-yl)quinoxalin-2-yl)-1H-pyrazol-1-yl)piperidin-1-yl)pentyl)amino)isoindoline-1,3-dione], the IC50 is 10 to 100 nM in the assay on MOLM-13 cells (setting [1]), less than 10 nM in the assay with MOLM-13 cells (setting [2]), 10 to 100 nM with MV4;11 cells (setting [3]) and less than 10 nM in the assay with MV4;11 cells (setting [4]).
With `O=C1CCC(N2C(=O)c3ccc(NCCCCC(=O)N4CCC(n5cc(-c6cnc7ccc(C8=CCNCC8)cc7n6)cn5)CC4)cc3C2=O)C(=O)N1` (centres unmarked) [GS-544, 2-(2,6-Dioxopiperidin-3-yl)-5-((5-oxo-5-(4-(4-(7-(1,2,3,6-tetrahydropyridin-4-yl)quinoxalin-2-yl)-1H-pyrazol-1-yl)piperidin-1-yl)pentyl)amino)isoindoline-1,3-dione], the IC50 with MOLM-13 cells (setting [1]) is 100 to 1000 nM; in the assay with MOLM-13 cells (setting [2]), less than 10 nM; with MV4;11 cells (setting [3]) it was 100 to 1000 nM; with MV4;11 cells (setting [4]), less than 10 nM.
`O=C1CCC(N2C(=O)c3ccc(NCCCCC(=O)N4CCC(c5cnc6ccccc6n5)CC4)cc3C2=O)C(=O)N1` (centres unmarked) [GS-545, 2-(2,6-Dioxopiperidin-3-yl)-5-((5-oxo-5-(4-(quinoxalin-2-yl)piperidin-1-yl)pentyl)amino)isoindoline-1,3-dione]: the IC50 is 100 to 1000 nM with MOLM-13 cells (setting [1]), 10 to 100 nM in the assay on MOLM-13 cells (setting [2]), greater than 1000 nM in the assay with MV4;11 cells (setting [3]) and 100 to 1000 nM with MV4;11 cells (setting [4]).
As for `Cc1cn(CCCCCCNc2ccc3c(c2)C(=O)N(C2CCC(=O)NC2=O)C3=O)nc1-c1cnc2ccccc2n1` (centres unmarked) [GS-546, 2-(2,6-Dioxopiperidin-3-yl)-5-((6-(4-methyl-3-(quinoxalin-2-yl)-TH-pyrazol-1-yl)hexyl)amino)isoindoline-1,3-dione], the IC50 with MOLM-13 cells (setting [1]) was greater than 1000 nM; in the assay on MOLM-13 cells (setting [2]), 10 to 100 nM; in the assay with MV4;11 cells (setting [3]) it was greater than 1000 nM; in the assay with MV4;11 cells (setting [4]) it was 100 to 1000 nM.
Regarding `O=C1CCC(N2C(=O)c3ccc(NCCCCCCn4cc(-c5nc6ccccc6nc5C(F)F)cn4)cc3C2=O)C(=O)N1` (centres unmarked) [GS-547, 5-((6-(4-(3-(Difluoromethyl)quinoxalin-2-yl)-1H-pyrazol-1-yl)hexyl)amino)-2-(2,6-dioxopiperidin-3-yl)isoindoline-1,3-dione], the IC50 in the assay on MOLM-13 cells (setting [5]) was greater than 1000 nM; with MOLM-13 cells (setting [6]) it was 10 to 100 nM; in the assay with MV4;11 cells (setting [7]) it was 100 to 1000 nM; with MV4;11 cells (setting [8]), 10 to 100 nM.
`CN1CCC(c2ccc3ncc(-c4cnn(CCCCCCNc5ccc6c(c5)C(=O)N(C5CCC(=O)NC5=O)C6=O)c4)nc3c2)CC1` (centres unmarked) [GS-548, 2-(2,6-Dioxopiperidin-3-yl)-5-((6-(4-(7-(1-methylpiperidin-4-yl)quinoxalin-2-yl)-1H-pyrazol-1-yl)hexyl)amino)isoindoline-1,3-dione]: the IC50 was 100 to 1000 nM with MOLM-13 cells (setting [1]), less than 10 nM in the assay with MOLM-13 cells (setting [2]), 100 to 1000 nM with MV4;11 cells (setting [3]) and less than 10 nM in the assay on MV4;11 cells (setting [4]).
On to `Cc1nn(CCCCCCNc2ccc3c(c2)C(=O)N(C2CCC(=O)NC2=O)C3=O)c(C)c1-c1ccc2ccccc2n1` (centres unmarked) [GS-549, 5-((6-(3,5-Dimethyl-4-(quinolin-2-yl)-1H-pyrazol-1-yl)hexyl)amino)-2-(2,6-dioxopiperidin-3-yl)isoindoline-1,3-dione], for which the IC50 in the assay with MOLM-13 cells (setting [1]) is 100 to 1000 nM; in the assay with MOLM-13 cells (setting [2]), less than 10 nM; with MV4;11 cells (setting [3]), 100 to 1000 nM; with MV4;11 cells (setting [4]), 10 to 100 nM.
As for `O=C1CCC(N2C(=O)c3ccc(NCCCCCCn4cc(-c5cnc6ccccc6n5)c(C(F)(F)F)n4)cc3C2=O)C(=O)N1` (centres unmarked) [GS-550, 2-(2,6-Dioxopiperidin-3-yl)-5-((6-(4-(quinoxalin-2-yl)-3-(trifluoromethyl)-1H-pyrazol-1-yl)hexyl)amino)isoindoline-1,3-dione], the IC50 in the assay with MOLM-13 cells (setting [1]) lay within 100 to 1000 nM; in the assay on MOLM-13 cells (setting [2]) it was 10 to 100 nM; in the assay with MV4;11 cells (setting [3]) it was 100 to 1000 nM; in the assay with MV4;11 cells (setting [4]) it was 10 to 100 nM.
For the compound `O=C1CCC(N2C(=O)c3ccc(NCCCCC(F)(F)Cn4cc(-c5cnc6ccccc6n5)cn4)cc3C2=O)C(=O)N1` (centres unmarked) [GS-551, 5-((5,5-Difluoro-6-(4-(quinoxalin-2-yl)-1H-pyrazol-1-yl)hexyl)amino)-2-(2,6-dioxopiperidin-3-yl)isoindoline-1,3-dione], the IC50 is greater than 1000 nM with MOLM-13 cells (setting [5]), 10 to 100 nM with MOLM-13 cells (setting [6]), greater than 1000 nM with MV4;11 cells (setting [7]) and 100 to 1000 nM in the assay with MV4;11 cells (setting [8]).
Take `O=C1CCC(N2C(=O)c3ccc(NCCCCCCn4cc(-c5cnc6ccccc6n5)c(C5CC5)n4)cc3C2=O)C(=O)N1` (centres unmarked) [GS-552, 5-((6-(3-Cyclopropyl-4-(quinoxalin-2-yl)-1H-pyrazol-1-yl)hexyl)amino)-2-(2,6-dioxopiperidin-3-yl)isoindoline-1,3-dione]: the IC50 in the assay with MOLM-13 cells (setting [1]) was 100 to 1000 nM; in the assay on MOLM-13 cells (setting [2]), less than 10 nM; in the assay with MV4;11 cells (setting [3]) it was 100 to 1000 nM; with MV4;11 cells (setting [4]), 10 to 100 nM.
On to `O=C1CCC(N2C(=O)c3ccc(NCCCCCCn4ncc(-c5cnc6ccccc6n5)c4C4CC4)cc3C2=O)C(=O)N1` (centres unmarked) [GS-553, 5-((6-(5-cyclopropyl-4-(quinoxalin-2-yl)-1H-pyrazol-1-yl)hexyl)amino)-2-(2,6-dioxopiperidin-3-yl)isoindoline-1,3-dione], for which the IC50 in the assay with MOLM-13 cells (setting [1]) is greater than 1000 nM; with MOLM-13 cells (setting [2]) it was 10 to 100 nM; in the assay on MV4;11 cells (setting [3]), greater than 1000 nM; in the assay with MV4;11 cells (setting [4]) it was 10 to 100 nM.
Regarding `O=C1CCC(N2C(=O)c3ccc(NCCCCCCn4nc(C(F)(F)F)c(-c5cnc6ccccc6n5)c4C(F)(F)F)cc3C2=O)C(=O)N1` (centres unmarked) [GS-554, 2-(2,6-Dioxopiperidin-3-yl)-5-((6-(4-(quinoxalin-2-yl)-3,5-bis(trifluoromethyl)-1H-pyrazol-1-yl)hexyl)amino)isoindoline-1,3-dione], the IC50 was greater than 1000 nM in the assay with MOLM-13 cells (setting [1]), 10 to 100 nM with MOLM-13 cells (setting [2]), 100 to 1000 nM in the assay on MV4;11 cells (setting [3]) and 10 to 100 nM in the assay on MV4;11 cells (setting [4]).
